Assays:
[1] = tested on: carotid artery thrombosis; experiment: cynomolgus monkey electrolytic injury-induced carotid artery thrombosis model; type: in vivo; conditions: arterial thrombosis model in cynomolgus monkeys
[2] = tested on: carotid artery thrombosis; experiment: Cynomolgus monkey electrolytic injury-induced carotid artery thrombosis model; type: in vivo; conditions: oral, 1 to 2 hours before the experiment
Excerpt: The efficacy of the PAR4 antagonists of the present invention in preventing thrombosis can also be measured in a variety of in vivo assays. Exemplary mammals that can provide models of thrombosis and hemostasis to test the effectiveness of the PAR4 antagonists of the present invention as antithrombotic agents include, but are not limited to, guinea pigs and primates. Relevant efficacy models include, but are not limited to, electrolytic injury-induced carotid artery thrombosis, FeCl3-induced carotid artery thrombosis and arteriovenous-shunt thrombosis. […]
On the day of the study, compounds or vehicles were administered orally at 1 to 2 hours before the experiment. […] Blood pressure and heart rate were monitored to maintain normal vital signs.
Carotid blood flow was measured with an appropriately sized TRANSONIC® flow probe and a TRANSONIC® perivascular flowmeter (TS420 Model, Transonic Systems Inc., Ithaca, N.Y.). It was continuously recorded over a 90-min period to monitor thrombosis-induced occlusion. Integrated carotid blood flow was measured by the area under the flow-time curve. It was expressed as percent of total control carotid blood flow, which would result if control blood flow had been maintained continuously for 90 min. […]

human washed platelets = experiment: Alpha-thrombin induced platelet aggregation assay; type: cell-based; conditions: 0.1 h, read-out: IC50 for the inhibition of platelet aggregation
Protocol: Example D is an alpha-thrombin-induced platelet aggregation assay. Alpha-thrombin activates both PAR1 and PAR4.
Human blood was collected in ACD (85 mM tri-sodium citrate, 78 mM citric acid, 110 mM D-glucose, pH 4.4) at a ratio of 1.4 ml per 10 ml blood. PRP was isolated by centrifugation at 170 g for 14 minutes and platelets were further pelleted by centrifugation at 1300 g for 6 minutes. Platelets were washed once with 10 ml ACD containing 1 mg/ml bovine serum albumin. Platelets were resuspended at ˜2.5×10^8/ml in Tyrode's Buffer (137 mM NaCl, 2 mM KCl, 1.0 mM MgCl2, 1 mM CaCl2, 5 mM glucose, 20 mM HEPES pH 7.4).
The ability of PAR4 antagonist to inhibit platelet aggregation induced by alpha-thrombin was tested using human washed platelets. […] Aggregation was initiated by addition of 1.5 nM alpha-thrombin (Haematologic Technologies, Essex Junction, Vt.) to 300 μl of washed platelets at stirring speed of 1000 rpm. […] IC50 was calculated using vehicle control as 0% inhibition.

PAR1 = PAR1 (Homo sapiens (Human), UniProt P25116); conditions: ACS patients, phase III; cited from earlier work
Chain of PAR1 (P25116 22-425): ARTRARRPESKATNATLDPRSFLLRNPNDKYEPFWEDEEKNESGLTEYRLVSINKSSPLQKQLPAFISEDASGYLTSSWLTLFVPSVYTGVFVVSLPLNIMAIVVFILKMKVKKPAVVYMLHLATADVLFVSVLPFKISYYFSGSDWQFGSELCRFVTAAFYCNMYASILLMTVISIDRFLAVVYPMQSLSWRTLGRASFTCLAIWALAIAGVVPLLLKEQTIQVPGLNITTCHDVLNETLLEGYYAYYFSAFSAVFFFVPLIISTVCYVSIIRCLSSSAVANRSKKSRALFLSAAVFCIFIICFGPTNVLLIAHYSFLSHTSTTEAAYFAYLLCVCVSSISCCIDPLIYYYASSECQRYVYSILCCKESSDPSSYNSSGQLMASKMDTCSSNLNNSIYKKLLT

Row | IC50 (human washed platelets) [nM] | Compound | inhibition of thrombus formation / antithrombotic efficacy [1] | antithrombotic efficacy in electrically-induced arterial thrombus model (dose response, FIG. 1C) [2] | cardiovascular events (PAR1) | risk of major bleeding (PAR1)
1 | 5 | COc1cc(OCc2csc(-c3ccccc3)n2)c2cc(-c3cn4nc(OC)sc4n3)oc2c1 [Example 3, 2-Methoxy-6-(6-methoxy-4-((2-phenylthiazol-4-yl)methoxy)benzofuran-2-yl)imidazo[2,1-b][1,3,4]thiadiazole] | antithrombotic efficacy | in vivo antithrombotic efficacy | – | –
2 | – | CCOC(=O)N[C@@H]1CC[C@@H]2[C@@H](C1)C[C@H]1C(=O)O[C@H](C)[C@H]1[C@H]2/C=C/c1ccc(-c2cccc(F)c2)cn1 [vorapaxar] | – | – | did not significantly reduce | significantly increased

— patent publication US10047103B2, “Imidazothiadiazole and imidazopyrazine derivatives as protease activated receptor 4 (PAR4) inhibitors for treating platelet aggregation” (BRISTOL-MYERS SQUIBB COMPANY, priority 2012, dated 2018)
